{"source": "patent US7598028B2", "about": "“Compositions and methods for detecting and treating prostate disorders” (The Regents of the University of Michigan, priority 2006, dated 2009)", "type_in_all_cases": "cell-based, human", "key": {"STAT3": {"system": "STAT3", "assay": "Western blot, STAT3 phosphorylation in LNCaP cells", "conditions": "sub-nanomolar or nanomolar levels of CXCL5", "protocol": "(§1) Western Blot and Protein Analysis. Cells were lysed, proteins resolved by electrophoresis, and electroblotting was carried out as described previously except that 20 ug protein was electrophoresed per gel lane for N15C6 cells and 100 ug protein for LNCaP cells (see, e.g., Begley L, et al., Aging Cell. 2005 December; 4(6):291-8; Begley L A, et al., J Biol. Chem. 2007 Sep. 14; 282(37):26767-74; each herein incorporated by reference in their entireties). Proteins were detected using antibodies against phospho-ERK½ (Cell Signaling #9101), total ERK½ (Cell Signaling, #9102), phospho-p65, (Rockland #100-401-264), total p65 (Rockland #100-4165), STAT3 (9139), phospho-STAT3 (9138), beta-actin (Santa Cruz #sc-1615), or tubulin (Upstate, #DM1A) in conjunction with an ECL detection system. Secondary antibodies included goat anti-rabbit (Cell Signaling, #7074) and goat anti-mouse (Santa Cruz, #SC-2005), and both were used at a 1:5000 concentration. Immunoblots shown are representative of triplicate experiments. Densitometric quantitation of immunoblot films was accomplished by scanning the original films and converting the .tiff files to grayscale. Images were inverted, and mean band intensities were measured using ImageJ (www, followed by, .nih.gov). The mean intensity of adjacent background was also measured for each band and subtracted from band intensity."}, "[1]": {"system": "PC3 prostate cancer cells", "assay": "Matrigel invasion assay, PC3", "conditions": "20 nM chemokine", "protocol": "Invasion Assays. Ability to invade through synthetic basement membrane was measured by plating 15,000 cells/well onto control or Matrigel-coated membranes in duplicate using 24-well BD Matrigel Invasion Chambers (Becton-Dickinson). Cells were plated in complete media and left untreated or pre-treated with 1 ug/ml anti-CXCR2 (Biosource AHR1532X) or anti-CXCR4 (BD Pharmingen 555971) for 2 hours, then exposed to complete media only or 20 nM CXCL5 as a chemo-attractant added to the companion plate. After 24 hours of incubation, the upper surface of the membranes were ‘scrubbed’ to remove non-invasive cells, and the cells that had invaded through to the lower surface of the Matrigel-coated membranes or to the bottom of the companion plate were fixed, stained, and counted. The number of invaded cells was calculated as the average number of cells present on the lower surface of the Matrigel-coated membrane and the companion plate counted over four low power (10× objective) microscopic fields per membrane over both wells per experimental condition. […]"}, "p65 subunit of NFkappaB": {"system": "p65 subunit of NFkappaB", "assay": "Western blot, p65 phosphorylation in LNCaP cells", "protocol": "as §1"}}, "note": "“Also recorded” adds a separate entry of the source.", "data": [{"substance": "CXCL5: recombinant human CXCL5 (R&D Systems, 254-X), CXC-type chemokine", "values": [{"measurement": "activation of STAT3", "setting": "STAT3", "result": "not observed"}, {"measurement": "invasion through Matrigel versus control media / vehicle", "setting": "[1]", "result": "invaded; also recorded: significantly more"}, {"measurement": "phosphorylation of the p65 subunit of NFkappaB", "setting": "p65 subunit of NFkappaB; 10 pM or 100 pM CXCL5", "result": "rapidly and transiently phosphorylated"}, {"measurement": "activation of NFkappaB", "setting": "p65 subunit of NFkappaB; nanomolar levels of CXCL5", "result": "not evident"}]}]}
